Reference: US6555548B2, “Compounds for treating fibromyalgia and chronic fatigue syndrome” (Pharmacia & Upjohn Company, priority 2000, dated 2003)

Which melting point does the source give for CN[C@@H]1Cc2cccc3[nH]c(=S)n(c23)C1 here?
The melting point was 210 to 213 °C.

With CN[C@@H]1Cc2cccc3[nH]c(=S)n(c23)C1.O=C(O)/C=C\C(=O)O as the compound, how does the melting point read?
The melting point was 195 to 196 °C.
